29 molecules from patent US7317014B2, “Bio-active pyrimidine molecules” (Orchid Research Laboratories, Ltd., priority 2002, dated 2008) can be followed below.

In one data set the test system is IL-6. Description: IL-6 production from LPS-stimulated human monocytes (ELISA). The data set is classed as cell-based. Particulars: Monocyte; for inhibition at 1 µM: Conc. 1 μM; for inhibition at 10 µM: Conc. 10 μM. On the procedure: Interleukin-6(IL-6) This assay determines the effect of test compounds on the production of IL-6 from human monocytes. Compounds are tested for their ability to downregulate the production of IL-6 in activated monocytes. Test compounds were incubated for three, six and twenty four hours with human monocytes. Lipopolysaccharide was used to stimulate the monocytes. The level of Interleukin-6 is quantitated using Enzyme-Linked Immunosorbent assay performed in a 96 well format.
On the technique in general: ELISA stands for enzyme-linked immunosorbent assay.

The test system of the next data set is Male Wistar rats. Briefly: Rat carrageenan paw edema test. The format is in vivo. Particulars: oral. Background: Carrageenan injected into the paw causes an acute inflammation.
The next data set concerns NCI-H460. Description: DTP human tumor cell line one-dose prescreen, NCI-H460. The format is cell-based. As to conditions: Concentration (100 μm), Lung NCI-H460, test/control (T/C). The method, then: (§1) The current assay utilizes a 384 well plate format and fluorescent staining technologies resulting in greater screening capacity for testing of synthetic samples. Cell Lines The cell lines of the cancer screening panel are grown in RPMI 1640 medium containing 5% fetal bovine serum and 2 mM L-glutamine. For a typical screening experiment, cells are inoculated into 96 well microtiter plates in 100 μL. After cell inoculation, the microtiter plates are incubated at 37° C., 5% CO2, 95% air and 100% relative humidity for 24 h prior to addition of experimental drugs. The cells are plated a densities of 5000 cells/well (MCF7), 1000 cells/well (NCI-H460), and 7500 cells/well (SF-268) to allow for varying doubling time of the cell lines. Each plate contains all three cell lines, a series of dilutions of standard agents, total kill wells and appropriate controls. Plates are incubated under standard conditions for 24 hours prior to addition of experimental compounds or extracts. Addition of Experimental Agents (Pure Compounds) […] Two standard drugs, meaning that their activities against the cell lines are well documented, are tested against each cell line: NSC 19893 (5-FU) and NSC 123127 (Adriamycin). Endpoint Measurement After compound addition, plates are incubated at standard conditions for ?hours, 10 μl/well Alamar Blue is added and the plates are incubated for an additional 4 hours. Fluorescence is measured using an excitation wavelength of 530 nm and an emission wavelength of 590 nm. Calculation of Percent Test Cell Growth/Control (Untreated) Cell Growth (T/C) Calculation of Percent Test Cell Growth/Control (Untreated) Cell Growth (T/C) Percent growth is calculated on a plate-by-plate basis for test wells relative to control wells. Percent Growth is expressed as the ratio of fluorescence of the test well to the average fluorescence of the control wells ×100.

In another data set the test system is SF-268. Description: DTP human tumor cell line one-dose prescreen, SF-268. The data set is classed as cell-based. Particulars: Concentration (100 μm), CNS SF-268, test/control (T/C). The method, then: as §1
In a further data set the test system is MCF7. Briefly: DTP human tumor cell line one-dose prescreen, MCF7. Particulars: Concentration (100 μm), Breast MCF7, test/control (T/C). The data set is classed as cell-based. On the procedure: as §1
In another data set the target is T1, COX-2 (Homo sapiens, UniProt P35354).
T1 construct: incubation of human blood with lipopolysaccharide (LPS), which induces COX-2 production in the blood; endogenous in cells; host or cells: fresh human whole blood from male volunteers, LPS-stimulated, aspirin-pretreated
T1 sequence (P35354 18-604): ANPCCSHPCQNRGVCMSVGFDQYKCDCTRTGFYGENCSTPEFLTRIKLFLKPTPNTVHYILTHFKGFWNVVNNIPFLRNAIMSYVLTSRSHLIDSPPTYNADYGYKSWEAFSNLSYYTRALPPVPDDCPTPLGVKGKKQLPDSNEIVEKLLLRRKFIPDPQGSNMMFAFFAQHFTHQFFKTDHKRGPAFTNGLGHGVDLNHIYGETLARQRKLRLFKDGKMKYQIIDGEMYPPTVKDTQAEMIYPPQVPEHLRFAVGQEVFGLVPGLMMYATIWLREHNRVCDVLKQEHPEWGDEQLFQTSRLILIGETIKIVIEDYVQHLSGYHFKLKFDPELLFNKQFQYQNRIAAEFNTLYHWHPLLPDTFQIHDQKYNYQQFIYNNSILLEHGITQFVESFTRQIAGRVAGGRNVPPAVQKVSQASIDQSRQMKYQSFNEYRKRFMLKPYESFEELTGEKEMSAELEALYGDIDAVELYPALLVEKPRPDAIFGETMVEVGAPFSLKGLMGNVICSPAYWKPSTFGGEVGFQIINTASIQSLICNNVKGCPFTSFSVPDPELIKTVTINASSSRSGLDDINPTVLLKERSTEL
Briefly: Human whole blood assay, COX-2 inhibition (PGE2 after LPS). As to conditions: Conc. 0.1 μM, 24 h. The format is cell-based. The method, then: The COX-2 inhibition activity of the compounds illustrated in the examples was determined by the following method. Human Whole Blood Assay Human whole blood provides a protein and cell rich milieu appropriate for the study of biochemical efficacy of anti-inflammatory compounds such as selective COX-2 inhibitors. […] This is correlating with the observation that COX-2 inhibitors have no effect on prostaglandin E2 (PGE2) production in normal blood. These inhibitors are active only after incubation of human blood with lipopolysaccharide (LPS), which induces COX-2 production in the blood. Method Fresh blood was collected in tubes containing potassium EDTA by vein puncture from male volunteers. The subjects should have no apparent inflammatory conditions and not taken NSAIDs for atleast 7 days prior to blood collection. Blood was treated with aspirin in vitro (10 μg/ml, at time zero) to inactivate COX-1, and then with LPS (10 μg/ml) along with test agents or vehicle. The blood was incubated for 24 h at 37° C., after which the tubes were centrifuged, the plasma was separated and stored at −80° C. (J. Pharmacol. Exp. Ther., 271, 1705, 1994; Proc. Natl. Acad. Sci. USA., 96, 7563, 1999). The plasma was assayed for PGE2 using Cayman ELISA kit as per the procedure outlined by the manufacturer (Cayman Chemicals, Ann Arbor, USA). The plasma was also tested for TNF-α, IL-1β, and IL-6 using appropriate human ELISA kit as per the procedure of manufacturer (Cayman Chemicals, Ann Arbor, USA).

Usually melting point stands for the temperature, or range, at which the solid turns liquid. Consider `Cc1ccc(-c2nc(Cl)nc(Cl)c2-c2ccc(Cl)cc2)cc1`, for which the melting point lay within 223 to 225 °C.

Molecule `[N-]=[N+]=Nc1nc(C(F)(F)F)nc(-c2ccccc2)c1-c1ccccc1` came in with a melting point of 126 to 128 °C.

`CS(=O)(=O)c1ccc(-c2nc(C(F)(F)F)nc(N=[N+]=[N-])c2-c2ccccc2)cc1` came in with a melting point of 172 to 175 °C.

Consider `CS(=O)(=O)c1ccc(-c2nc(C(F)(F)F)nc(N=[N+]=[N-])c2-c2ccc(Cl)cc2)cc1`, for which the melting point lay in the range of 317 to 320 °C.

`CS(=O)(=O)c1ccc(-c2nc(C(F)(F)F)nc(N=[N+]=[N-])c2-c2ccc(F)cc2)cc1` registered a melting point of 285 to 288 °C.

The molecule `NNc1nc(C(F)(F)F)nc(-c2ccc(F)cc2)c1-c1ccccc1` yielded a melting point of 175 to 177 °C.

As to `CS(=O)(=O)c1ccc(-c2nc(C(F)(F)F)nc(NN)c2-c2ccc(Cl)cc2)cc1`, the melting point was in the range of 266 to 269 °C.

`CS(=O)(=O)c1ccc(-c2nc(C(F)(F)F)nc(NN)c2-c2ccc(F)cc2)cc1` returned a melting point of 286 to 290 °C.

Take `CSc1ccc(-c2c(NN)nc(Cl)nc2-c2ccccc2)cc1`: the melting point is 272 to 274 °C.

Turning to `Fc1ccc(-c2nc(C(F)(F)F)nc(Cl)c2-c2ccccc2)cc1`, the melting point is 67 to 68 °C.

`CSc1ccc(-c2c(NN)nc(NN)nc2-c2ccccc2)cc1` had a melting point of 207 to 210 °C.

`CC(=O)NNc1nc(C(F)(F)F)nc(-c2ccccc2)c1-c1ccccc1` came in with a melting point of 113 to 116 °C.

On to `CC(=O)NNc1nc(C(F)(F)F)nc(-c2ccc(F)cc2)c1-c1ccccc1`, for which the melting point was in the range of 149 to 153 °C.

`CC(=O)NNc1nc(C(F)(F)F)nc(-c2ccc(S(C)(=O)=O)cc2)c1-c1ccccc1`: the melting point lay in the range of 265 to 268 °C.

`CC(=O)NNc1nc(C(F)(F)F)nc(-c2ccc(S(C)(=O)=O)cc2)c1-c1ccc(Cl)cc1` showed a melting point of 254 to 256 °C.

For `CS(=O)(=O)c1ccc(-c2nc(C(F)(F)F)nc(NNC(=O)C(F)(F)F)c2-c2ccc(Cl)cc2)cc1`, the melting point was in the range of 307 to 309 °C.

`O=c1nc(Cl)cc(-c2ccccc2)n1-c1ccccc1` displayed a melting point of 141 to 143 °C.

One may read the inhibition as the drop in the measured response relative to a control, in per cent. A lower inhibition goes with a weak effect. In turn, `FC(F)(F)c1nc(Cl)c(-c2ccccc2)c(-c2ccccc2)n1` [Example 1, 4-chloro-5,6-diphenyl-2-(trifluoromethyl)pyrimidine] displayed a melting point of 105 to 107 °C. In addition, in the data set on IL-6, the inhibition at 1 µM was 62.5%.

In the case of `Cc1ccc(-c2nc(C(F)(F)F)nc(Cl)c2-c2ccccc2)cc1` [Example 2, 4-chloro-6-(4-methylphenyl)-5-phenyl-2-(trifluoromethyl)pyrimidine], the melting point was 97 to 100 °C. The inhibition at 1 µM in the data set with IL-6 came out at 62.3%.

Regarding `Clc1nc(Cl)c(-c2ccccc2)c(-c2ccccc2)n1` [Example 7, 2,4-dichloro-5,6-diphenylpyrimidine], the melting point fell in the range of 144 to 146 °C. Besides, in the data set on Male Wistar rats, the “Rat Paw Edema model % Inhibition (10 mg/kg body weight)” value (“Rat Paw Edema model % Inhibition” for short) is 60.9%.

In turn, `Cc1ccc(-c2nc(Cl)nc(Cl)c2-c2ccccc2)cc1` [Example 8, 2,4-dichloro-6-(4-methylphenyl)-5-phenylpyrimidine] showed a melting point of 130 to 132 °C. Also, the “Percentage Growth Lung NCI-H460” value with NCI-H460 came out at 1. In addition, the “Percentage Growth CNS SF-268” value with SF-268 came to 6. For the same molecule, in the data set on MCF7, the “Percentage Growth Breast MCF7” value worked out at 5.

For the molecule `Clc1ccc(-c2nc(Cl)nc(Cl)c2-c2ccccc2)cc1` [Example 9, 6-(4-chlorophenyl)-2,4-dichloro-5-phenylpyrimidine], the melting point fell in the range of 129 to 131 °C. Further, the “Rat Paw Edema model % Inhibition” value with Male Wistar rats is on record as 42.8%. In addition, the “Percentage Growth Lung NCI-H460” value in the data set with NCI-H460 stood at 0. Further, the inhibition at 0.1 µM on COX-2 was found to be 60.5%. Besides, the “Percentage Growth CNS SF-268” value in the data set with SF-268 was 1. Also, the “Percentage Growth Breast MCF7” value with MCF7 was found to be 1.

In turn, `Clc1ccc(-c2c(Cl)nc(Cl)nc2-c2ccccc2)cc1` [Example 10, 5-(4-chlorophenyl)-2,4-dichloro-6-phenylpyrimidine] displayed a melting point of 123 to 125 °C. Besides, in the data set with NCI-H460, the “Percentage Growth Lung NCI-H460” value came to 0. In the data set on SF-268, the “Percentage Growth CNS SF-268” value is on record as 0. Moreover, the “Percentage Growth Breast MCF7” value in the data set on MCF7 worked out at 0.

`CSc1ccc(-c2c(Cl)nc(Cl)nc2-c2ccccc2)cc1` [Example 12, 2,4-dichloro-5-[4-(methylthio)phenyl]-6-phenylpyrimidine] yielded a melting point of 88 to 90 °C. Further, the “Percentage Growth Lung NCI-H460” value in the data set with NCI-H460 is recorded as 0. The “Percentage Growth CNS SF-268” value in the data set with SF-268 came to 4. Also, in the data set on MCF7, the “Percentage Growth Breast MCF7” value is −1.

`CSc1ccc(-c2c(Cl)nc(Cl)nc2-c2ccc(Cl)cc2)cc1` [Example 13, 2,4-dichloro-6-(4-chlorophenyl)-5-[4-(methylthio)phenyl]pyrimidine]: the melting point is 144 to 146 °C. Also, the “Rat Paw Edema model % Inhibition” value with Male Wistar rats is on record as 47.8%. The molecule also came in with an inhibition at 0.1 µM at COX-2 of 45.7%.

In the case of `NNc1nc(C(F)(F)F)nc(-c2ccccc2)c1-c1ccccc1` [Example 21, 4-hydrazino-5,6-diphenyl-2-(trifluoromethyl)pyrimidine], the melting point lay within 182 to 186 °C. In the data set on IL-6, 1 µM produced 67.5% inhibition.

`Cc1ccc(-c2nc(C(F)(F)F)nc(NN)c2-c2ccccc2)cc1` [Example 22, 4-hydrazino-6-(4-methylphenyl)-5-phenyl-2-(trifluoromethyl)pyrimidine] registered a melting point of 188 to 191 °C. Moreover, the inhibition at 1 µM in the data set on IL-6 was found to be 52.3%.

In turn, `CS(=O)(=O)c1ccc(-c2nc(C(F)(F)F)nc(NN)c2-c2ccccc2)cc1` [Example 24, 4-hydrazino-6-[4-(methylsulfonyl)phenyl]-5-phenyl-2-(trifluoromethyl)pyrimidine] yielded a melting point of 272 to 275 °C. In the data set on IL-6, this molecule had an inhibition at 10 µM of 66%.

The molecule `CC(=O)NNc1nc(C(F)(F)F)nc(-c2ccc(C)cc2)c1-c1ccccc1` [Example 32, N′-[6-(4-methylphenyl)-5-phenyl-2-(trifluoromethyl)pyrimidin-4-yl]acetohydrazide] returned a melting point of 147 to 152 °C. Moreover, 10 µM produced 53.3% inhibition with IL-6.
